# Reference: PMC12040169 (PLOS Biology, 2025)
# Assay: in vitro
# Settings: human, hela cells, % viability
row,Structure (SMILES),"viability at 28.5 h, 10 µM [%]"
1,O=C(NCCNC(=O)c1ccccc1I)c1ccccn1 [CBK269357],89.4
2,Cc1sc(NC(=O)CN2CCOCC2)c(C(=O)c2ccccc2)c1C [CBK263346],109
3,CN(C)CCCNC(=O)c1cccc(S(=O)(=O)N2CCCCC2)c1 [CBK304314C],91.6
4,O=C1c2cccc3cccc(c23)C(=O)N1CCN1CCN(CC(O)COc2ccc3c(c2)OCO3)CC1 (stereo not shown) [CBK074849C],87.4
5,CC(=O)N(C)c1ncc(Br)cc1C(=O)N(C)C [CBK076533],97.1
6,Cn1c(=O)oc2ccc(C(=O)N3CCn4nc(CO)cc4C3)cc21 [CBK306821],85.6
7,CNC(=S)NCc1nc(-c2ccc(C)cc2)no1 [CBK288418],97.3
8,CC(C)CS(=O)(=O)Nc1ccc(F)cc1F [CBK020615],91.9
9,Cn1ccnc1C1(O)CCN(C(=O)Nc2ccccc2Cl)CC1 [CBK282278],89.3
10,CN1CCN(C(=O)CN(CC(=O)N2CCN(C)CC2)S(=O)(=O)c2ccc(Cl)cc2)CC1 [CBK269627],96.6
11,FC(F)(F)c1nc2ccccc2nc1SCCOc1ccccc1 [CBK103726],102
12,CC(=O)Nc1ccc(-c2nc3cnccc3o2)cc1 [CBK287975],85.9
13,O=C(NCc1ccncc1)c1nn(-c2ncccn2)c2ccccc12 [CBK048498],93.1
14,O=C(CSc1nnc(Cc2ccccc2)o1)Nc1c(Cl)cc(Cl)cc1Cl [CBK266119],99.8
15,CC1=NN(c2nc(-c3ccc(Br)cc3)cs2)C(=O)C1/N=N/c1ccc(C(=O)O)cc1 (stereo not shown) [CBK262435],86.7
16,CNCC1CCN(S(=O)(=O)c2ccc(OCc3ncnn3C)cc2)CC1 [CBK304309C],97.6
17,O=[N+]([O-])c1ccc(CN2C[C@H](O)C[C@H]2c2nc(-c3ccccc3)no2)cc1 [CBK288833],108
18,CCOC(=O)c1c(NC(=O)/C=C/C(=O)O)sc2c1CCCCC2 [CBK265299],91.5
19,O=C(OCCc1ccncc1)N1CCc2ccccc21 [CBK200140],94.9
20,CCOC(=O)C1(Cc2cc(-c3ccc(F)cc3)no2)CCNCC1 [CBK284581],109
21,O=C(O)CCc1ccc(S(=O)(=O)Nc2ccccc2Cc2ccccc2)cc1 [CBK295616],99.6

row,Structure (SMILES),"viability at 28.5 h, 10 µM [%]"
1,C=C(C)CNc1ccccc1C(=O)OC [CBK003656C],89.1
2,O=C(CSc1ncn[nH]1)N/N=C/c1cn(-c2ccccc2)nc1-c1ccccc1 [CBK262850],101
3,COc1ccc2[nH]cc(CC(=O)N3CCCC4(CCN(C(=O)c5ccc(OC)c(OC)c5)C4)C3)c2c1 (stereo not shown) [CBK131666],81.1
4,COc1cc(NC(=O)CSc2nncn2C)c(OC)cc1Cl [CBK270307],86.4
5,Cn1cc(C2c3ccccc3C(=O)N2CC(=O)O)c2ccccc21 (stereo not shown) [CBK286555],90.2
6,COc1ccc(N2CCN(c3cc(-c4ccc(CCC(=O)O)cc4)ncn3)CC2)cc1OC [CBK091030],94.1
7,Cc1nn(CC(=O)N2CCC(C)CC2)c(=O)c2cc3sccc3n12 [CBK284083],80
8,CCOC1CCCN(C(=O)c2cccnc2Nc2cccc(F)c2)C1 (stereo not shown) [CBK305307],86.9
9,O=C(c1ccccc1F)N1CCCC(c2n[nH]c3ncccc23)C1 (stereo not shown) [CBK282672],101
10,N#C/C(=C\c1c[nH]nc1-c1ccccc1)c1nc(-c2cccc([N+](=O)[O-])c2)cs1 [CBK267252],96.8
11,CN(CCN1CCCCC1)C(=O)c1cc2ccc(N(C)C)cc2[nH]1 [CBK281830],107
12,Nc1nnc(C(=O)c2cc(Br)ccc2N)s1 [CBK009811],102
13,COCCn1c(CN2CCCC(C)C2)nc2c1c(=O)n(C)c(=O)n2C (stereo not shown) [CBK306063],108
14,Cc1cc(C)c(C)c(S(=O)(=O)NCCN2CCCCC2CO)c1C (stereo not shown) [CBK307333],90.4
15,O=C1CC2(CCC3C(C(=O)N4CCCCC4)C32)Oc2ccccc21 (stereo not shown) [CBK284947],105
16,Cc1ncccc1COC(=O)N1CCSCC1 [CBK200156],104
17,Cc1nc(-c2ccc(NC(=O)Cc3sc(C)nc3C)cc2)cs1 [CBK281404],96
18,COc1ccc2cc(Br)ccc2c1CC(=O)Nc1ccccc1[N+](=O)[O-] [CBK268823],95.8
19,CC(C)[C@H](CO)Nc1nccnc1-c1ccccc1CO [CBK037408],98.2
20,O=C1COc2ccccc2C/C=C/CC2(CCNCC2)C(=O)NCCN1 [CBK291996],105
21,COC(=O)c1cn([C@H]2CO[C@H]3[C@@H]2OC[C@@H]3NS(=O)(=O)Cc2ccccc2)nn1 [CBK289498],86.9

row,Structure (SMILES),"viability at 28.5 h, 10 µM [%]"
1,O=S(=O)(NCc1ccccc1)c1cccc(S(=O)(=O)NCc2ccccc2)c1 [CBK263250],91.5
2,COc1cccc(C(=O)N2CCC(c3cc4ncccc4[nH]3)CC2)c1 [CBK283398],117
3,C(=C\c1ccccc1)/CSc1nnc(CSc2nc3ccccc3s2)n1-c1ccccc1 [CBK264467],101
4,CC(C)(C)c1ccc(S(=O)(=O)NCc2ccc(C(=O)NCc3ccccn3)cc2)cc1 [CBK267248],115
5,Cc1[nH]c2ccccc2c1/C=N/c1ccc(S(N)(=O)=O)cc1 [CBK261352],96
6,COc1ccc(-c2nnc3[nH]c(=O)n(C)c(=O)c3n2)cc1OC [CBK263914],89
7,O=S(=O)(NC1c2cccc3cccc(c23)C1Sc1ncccn1)c1ccc(Cl)cc1 (stereo not shown) [CBK264638],94.3
8,CN1C[C@H]2N(C)C(=O)c3ccccc3C(=O)[C@@]2(C)C1 [CBK283482],86.7
9,Cc1coc(C)c1C(=O)CC1(O)C(=O)N(CCc2ccccc2)c2ccccc21 (stereo not shown) [CBK293975],84.8
10,CCOC(=O)c1c(NC(=O)CN2CC(C)OC(C)C2)sc2c1CCC(C)C2 (stereo not shown) [CBK264572],107
11,Clc1ccc(COc2ccnc(N3CCCNCC3)n2)cc1Cl [CBK091550],90
12,OCCCNc1cncc(-c2ccc(F)cc2F)n1 [CBK065851],96.1
13,Cc1ccc(N(CC(=O)NCC2CCCO2)S(=O)(=O)c2ccc(Cl)cc2)cc1 (stereo not shown) [CBK269039],104
14,CN(C)CCNC(=O)c1cccc(-c2cc(N3CCCN(C)CC3)n3nccc3n2)c1 [CBK037143],86.2
15,C[C@@H](c1ccccc1)n1c(=O)[nH]c2ncc(-c3ccco3)nc21 [CBK064168],112
16,Oc1ccc(Nc2nc3nonc3nc2Nc2ccccc2)cc1 [CBK263551],94
17,CCn1cc(CN(CCOC)C(=O)c2cc3c(Cl)cccc3[nH]2)cn1 [CBK306903],91.5
18,c1ccc2c3c([nH]c2c1)C12CCN(CC1)C(c1ccncc1)N2CC3 (stereo not shown) [CBK284434],88.5
19,O=c1cc(O)c2c(=O)[nH]c(=O)n(-c3ccccc3)c2[nH]1 [CBK287907],88.2
20,CSc1nsc(SCC(=O)c2ccc(Oc3ccccc3)cc2)n1 [CBK269104],96.8

# Same assay, conditions: human, hela cells, % viability, bulk resorufin, single well
row,Structure (SMILES),"viability at 28.5 h, 10 µM [%]"
1,CCOC(=O)N1CCC2(CC1)OCc1ccc(C#N)cc1O2 [CBK131679],97.2
2,O=C1NC(=O)C(CCc2ccncc2)(c2ccccc2)C(=O)N1 [CBK288431],96.9
